SMILES strings stand for the structures. Where a name gives a salt, the structure may show the parent alone.

The target of the assay is human CXCR3-A receptor (Homo sapiens (Human), UniProt P49682). The assay is described as follows: 125I-CXCL10 competition radioligand binding assay.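 Also: One-hour incubation of membranes with tracer, bound radioligand separated by glass fibre filtration, IC50 derived from four-parameter nonlinear fit of competition curves.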 Particulars: displacement of 125I-CXCL10 from membranes of CHO cells expressing human recombinant CXCR3-A. Background: Loss of bound radioactivity is the signal in a displacement assay; it reports binding, not function.
human CXCR3-A receptor, sequence (P49682 whole entry): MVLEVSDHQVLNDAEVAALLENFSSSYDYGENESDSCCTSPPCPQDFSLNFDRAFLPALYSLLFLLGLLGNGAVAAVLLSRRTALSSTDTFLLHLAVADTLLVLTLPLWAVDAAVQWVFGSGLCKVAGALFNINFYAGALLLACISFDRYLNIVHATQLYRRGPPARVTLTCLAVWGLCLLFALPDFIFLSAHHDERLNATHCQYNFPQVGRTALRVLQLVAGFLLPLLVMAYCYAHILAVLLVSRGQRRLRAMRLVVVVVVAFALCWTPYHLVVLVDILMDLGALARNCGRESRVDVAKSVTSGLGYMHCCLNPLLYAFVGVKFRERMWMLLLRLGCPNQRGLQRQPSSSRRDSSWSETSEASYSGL
Consider `CCCN(Cc1ccc(OCCN2C(=O)CCC2=O)c(Cl)c1)C(CC(=O)O)c1ccc(Cl)cc1` (stereo not drawn) [Example 103, 3-({3-Chloro-4-[2-(2,5-dioxo-pyrrolidin-1-yl)-ethoxy]-benzyl}-propyl-amino)-3-(4-chloro-phenyl)-propionic acid], for which the IC50 (usually the concentration at which inhibition is half-maximal) was determined as 170 nM.

Regarding `Cc1cc(CN(CC2CC2)[C@H](CC(=O)O)c2ccc(Cl)c(Cl)c2)ccc1OCCN1C(=O)CCC1=O` [Example 27, (R)-3-(Cyclopropylmethyl-{4-[2-(2,5-dioxo-pyrrolidin-1-yl)-ethoxy]-3-methyl-benzyl}-amino)-3-(3,4-dichloro-phenyl)-propionic acid], the IC50 came to 86 nM.

`CCCCN(Cc1ccc(OCCN2C(=O)CCC2=O)c(F)c1)C(CC(=O)O)c1ccc(Cl)c(Cl)c1` (stereo not drawn) [Example 64, 3-(Butyl-{4-[2-(2,5-dioxo-pyrrolidin-1-yl)-ethoxy]-3-fluoro-benzyl}-amino)-3-(3,4-dichloro-phenyl)-propionic acid]: the IC50 is 456 nM.

On to `Cc1cc(CN(CC(C)C)C(CC(=O)O)c2ccc(Cl)cc2)ccc1CCCN1C(=O)CCC1=O` (stereo not drawn) [Example 137, 3-(4-Chloro-phenyl)-3-({4-[3-(2,5-dioxo-pyrrolidin-1-yl)-propyl]-3-methyl-benzyl}-isobutyl-amino)-propionic acid], for which the IC50 is 240 nM.

Turning to `COc1cc(CN(CC2CCCC2)C(CC(=O)O)c2ccc3c(c2)CCO3)ccc1OCCn1c(=O)ccn(C)c1=O` (stereo not drawn) [Example 127, 3-(Cyclopentylmethyl-{3-methoxy-4-[2-(3-methyl-2,6-dioxo-3,6-dihydro-2H-pyrimidin-1-yl)-ethoxy]-benzyl}-amino)-3-(2,3-dihydro-benzofuran-5-yl)-propionic acid], the IC50 came to 38 nM.

Consider `CCCCN(Cc1ccc(OCCN2C(=O)CCC2=O)c(OC)c1)C(CC(=O)O)c1ccc(Cl)c(F)c1` (stereo not drawn) [Example 43, 3-(Butyl-{4-[2-(2,5-dioxo-pyrrolidin-1-yl)-ethoxy]-3-methoxy-benzyl}-amino)-3-(4-chloro-3-fluoro-phenyl)-propionic acid], for which the IC50 amounted to 23 nM.

Take `CCCN(Cc1ccc(OCCN2C(=O)CCC2=O)c(C)c1)C(c1ccc(Cl)cc1)C(C)C(=O)O` (stereo not drawn) [Example 194, 3-(4-Chloro-phenyl)-3-({4-[2-(2,5-dioxo-pyrrolidin-1-yl)-ethoxy]-3-methyl-benzyl}-propyl-amino)-2-methyl-propionic acid]: the IC50 stood at 272 nM.

For the compound `COc1cc(CN(Cc2ccc(F)cc2)C(CC(=O)O)c2ccc(Cl)cc2)ccc1OCCN1C(=O)CCC1=O` (stereo not drawn) [Example 165, 3-(4-Chloro-phenyl)-3-[{4-[2-(2,5-dioxo-pyrrolidin-1-yl)-ethoxy]-3-methoxy-benzyl}-(4-fluoro-benzyl)-amino]-propionic acid; hydrochloride], the half-maximal inhibitory concentration (IC50) is 75 nM.

On to `O=C(O)CC(c1ccc(Cl)c(F)c1)N(Cc1ccc(OCCN2C(=O)CCC2=O)c(F)c1)CC1CCCC1` (stereo not drawn) [Example 60, 3-(4-Chloro-3-fluoro-phenyl)-3-(cyclopentylmethyl-{4-[2-(2,5-dioxo-pyrrolidin-1-yl)-ethoxy]-3-fluoro-benzyl}-amino)-propionic acid], for which the IC50 stood at 243 nM.

On to `COc1cc(CN(CCC(F)(F)F)C(CC(=O)O)c2ccc(Cl)cc2)ccc1OCCn1c(=O)ccn(C)c1=O` (stereo not drawn) [Example 130, 3-(4-Chloro-phenyl)-3-[{3-methoxy-4-[2-(3-methyl-2,6-dioxo-3,6-dihydro-2H-pyrimidin-1-yl)-ethoxy]-benzyl}-(3,3,3-trifluoro-propyl)-amino]-propionic acid], for which the IC50 stood at 1250 nM.

For the compound `Cc1cc(CN(CC2CCC2)[C@@H](CC(=O)O)c2ccc(Cl)cc2)ccc1OCCN1C(=O)CCC1=O` [Example 71, (S)-3-(4-Chloro-phenyl)-3-(cyclobutylmethyl-{4-[2-(2,5-dioxo-pyrrolidin-1-yl)-ethoxy]-3-methyl-benzyl}-amino)-propionic acid], the IC50 came out at 54 nM.

Take `CCCCN(Cc1ccc(OCCN2C(=O)CCC2=O)c(C)c1)C1c2ccc(Cl)cc2CC1C(=O)O` (stereo not drawn) [Example 173, 1-(Butyl-{4-[2-(2,5-dioxo-pyrrolidin-1-yl)-ethoxy]-3-methyl-benzyl}-amino)-5-chloro-indan-2-carboxylic acid]: the IC50 was determined as 603 nM.

For the compound `CCCCN(Cc1ccc(OCCN2C(=O)CCC2=O)c(C)c1)C(CC(=O)O)c1ccc(Cl)cc1Cl` (stereo not drawn) [Example 164, 3-(Butyl-{4-[2-(2,5-dioxo-pyrrolidin-1-yl)-ethoxy]-3-methyl-benzyl}-amino)-3-(2,4-dichloro-phenyl)-propionic acid], the IC50 stood at 133 nM.

For the compound `CCCN(Cc1ccc(OCCn2c(=O)ccn(C)c2=O)c(OC)c1)C(CC(=O)O)c1ccc(Cl)cc1Cl` (stereo not drawn) [Example 159, 3-(2,4-Dichloro-phenyl)-3-({3-methoxy-4-[2-(3-methyl-2,6-dioxo-3,6-dihydro-2H-pyrimidin-1-yl)-ethoxy]-benzyl}-propyl-amino)-propionic acid], the concentration for half-maximal inhibition (IC50) came out at 354 nM.

Consider `Cc1cc(CN(CCC(F)(F)F)C(CC(=O)O)c2ccc(Cl)c(Cl)c2)ccc1OCCN1C(=O)CCC1=O` (stereo not drawn) [Example 167, 3-(3,4-Dichloro-phenyl)-3-[{4-[2-(2,5-dioxo-pyrrolidin-1-yl)-ethoxy]-3-methyl-benzyl}-(3,3,3-trifluoro-propyl)-amino]-propionic acid], for which the IC50 was 2440 nM.

On to `COc1cc(CN(CC2CC2)C(c2ccc(Cl)cc2)C(C)C(=O)O)ccc1OCCN1C(=O)CCC1=O` (stereo not drawn) [Example 187, 3-(4-Chloro-phenyl)-3-(cyclopropylmethyl-{4-[2-(2,5-dioxo-pyrrolidin-1-yl)-ethoxy]-3-methoxy-benzyl}-amino)-2-methyl-propionic acid], for which the IC50 was 71 nM.

Turning to `CCCCN(Cc1ccc(OCCN2C(=O)CCC2=O)c(CC)c1)C(CC(=O)O)c1ccc(Cl)c(F)c1` (stereo not drawn) [Example 93, 3-(Butyl-{4-[2-(2,5-dioxo-pyrrolidin-1-yl)-ethoxy]-3-ethyl-benzyl}-amino)-3-(4-chloro-3-fluoro-phenyl)-propionic acid], the IC50 is 79 nM.

With `Cc1cc(CN(CC2CCCCC2)C(CC(=O)O)c2ccc3c(c2)CCO3)ccc1CCCN1C(=O)CCC1=O` (stereo not drawn) [Example 143, 3-(Cyclohexylmethyl-{4-[3-(2,5-dioxo-pyrrolidin-1-yl)-propyl]-3-methyl-benzyl}-amino)-3-(2,3-dihydro-benzofuran-5-yl)-propionic acid], the IC50 is 211 nM.

`Cc1cc(CN(C)C(c2ccc(Cl)cc2)C(C)C(=O)O)ccc1OCCN1C(=O)CCC1=O` (stereo not drawn) [Example 176]: the half-maximal inhibitory concentration (IC50) was found to be 5520 nM.

`CCc1cc(CN(CC2CCC2)[C@@H](CC(=O)O)c2ccc(Cl)cc2)ccc1OCCN1C(=O)CCC1=O` [Example 88, (S)-3-(4-Chloro-phenyl)-3-(cyclobutylmethyl-{4-[2-(2,5-dioxo-pyrrolidin-1-yl)-ethoxy]-3-ethyl-benzyl}-amino)-propionic acid]: the 50% inhibitory concentration (IC50) was found to be 70 nM.

`CC(C)CN(Cc1ccc(OCCN2C(=O)CCC2=O)c(F)c1)C(CC(=O)O)c1ccc(Cl)cc1` (stereo not drawn) [Example 53, 3-(4-Chloro-phenyl)-3-({4-[2-(2,5-dioxo-pyrrolidin-1-yl)-ethoxy]-3-fluoro-benzyl}-isobutyl-amino)-propionic acid]: the IC50 stood at 125 nM.

As for `COc1cc(CN(CC2CCCC2)C(CC(=O)O)c2ccc(Cl)cc2)ccc1SCCN1C(=O)CCC1=O` (stereo not drawn) [Example 188, 3-(4-Chloro-phenyl)-3-(cyclopentylmethyl-{4-[2-(2,5-dioxo-pyrrolidin-1-yl)-ethylsulfanyl]-3-methoxy-benzyl}-amino)-propionic acid], the IC50 amounted to 31 nM.

On to `COc1cc(CN(CC2CC2)C(CC(=O)O)c2ccc(Cl)c(Cl)c2)ccc1OCCN1C(=O)CCC1=O` (stereo not drawn) [Example 45, 3-(Cyclopropylmethyl-{4-[2-(2,5-dioxo-pyrrolidin-1-yl)-ethoxy]-3-methoxy-benzyl}-amino)-3-(3,4-dichloro-phenyl)-propionic acid], for which the IC50 amounted to 66 nM.

Take `CCCN(Cc1ccc(OCCN2C(=O)CCC2=O)c(Cl)c1)C(CC(=O)O)c1ccc(Cl)c(Cl)c1` (stereo not drawn) [Example 107, 3-({3-Chloro-4-[2-(2,5-dioxo-pyrrolidin-1-yl)-ethoxy]-benzyl}-propyl-amino)-3-(3,4-dichloro-phenyl)-propionic acid]: the IC50 turned out to be 570 nM.

On to `Cc1cc(CN(CC2CC2)C(CC(=O)O)c2ccc(Cl)cc2Cl)ccc1OCCN1C(=O)CCC1=O` (stereo not drawn) [Example 163, 3-(Cyclopropylmethyl-{4-[2-(2,5-dioxo-pyrrolidin-1-yl)-ethoxy]-3-methyl-benzyl}-amino)-3-(2,4-dichloro-phenyl)-propionic acid], for which the IC50 stood at 162 nM.

As for `COc1cc(CN(CC2CC2)C(CC(=O)O)c2ccc(Cl)cc2Cl)ccc1OCCn1c(=O)ccn(C)c1=O` (stereo not drawn) [Example 156, 3-(Cyclopropylmethyl-{3-methoxy-4-[2-(3-methyl-2,6-dioxo-3,6-dihydro-2H-pyrimidin-1-yl)-ethoxy]-benzyl}-amino)-3-(2,4-dichloro-phenyl)-propionic acid], the IC50 came to 120 nM.

For `COc1cc(CN(CC(C)C)C(CC(=O)O)c2ccc(Cl)c(Cl)c2)ccc1SCCN1C(=O)CCC1=O` (stereo not drawn) [Example 193, 3-(3,4-Dichloro-phenyl)-3-({4-[2-(2,5-dioxo-pyrrolidin-1-yl)-ethylsulfanyl]-3-methoxy-benzyl}-isobutyl-amino)-propionic acid], the IC50 was 72 nM.

As to `COc1cc(CN(CC2CCCC2)C(CC(=O)O)c2ccc(C)cc2)ccc1OCCN1C(=O)CCC1=O` (stereo not drawn) [Example 179, 3-(Cyclopentylmethyl-{4-[2-(2,5-dioxo-pyrrolidin-1-yl)-ethoxy]-3-methoxy-benzyl}-amino)-3-p-tolyl-propionic acid], the IC50 stood at 91 nM.

In the case of `CCN(Cc1ccc(OCCn2c(=O)ccn(C)c2=O)c(OC)c1)C(c1ccc(Cl)cc1)C(C)C(=O)O` (stereo not drawn) [Example 153, 3-(4-Chloro-phenyl)-3-(ethyl-{3-methoxy-4-[2-(3-methyl-2,6-dioxo-3,6-dihydro-2H-pyrimidin-1-yl)-ethoxy]-benzyl}-amino)-2-methyl-propionic acid], the IC50 came to 635 nM.

For the compound `Cc1cc(CN(CC2CCCC2)C(CC(=O)O)c2ccc3c(c2)CCO3)ccc1OCCN1C(=O)CCC1=O` (stereo not drawn) [Example 147, 3-(Cyclopentylmethyl-{4-[2-(2,5-dioxo-pyrrolidin-1-yl)-ethoxy]-3-methyl-benzyl}-amino)-3-(2,3-dihydro-benzofuran-5-yl)-propionic acid], the IC50 was determined as 46 nM.

The values are drawn from US9447038B2 (SANOFI, priority 2012, dated 2016).
